Data as given in PubChem BioAssay (NCI).
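Where inhibition never reached the appropriate level, the endpoint shown equals the highest concentration tested. Otherwise, values were interpolated linearly from a five-concentration, 48-hour dose response in 96-well plates. Definition used: TGI = concentration required for complete inhibition of growth.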

How the values were obtained:
Assay in all cases: NCI-60 cell line screen, 48 h
HCT-116 colon = system: HCT-116 colon
NCI-H23 lung = system: NCI-H23 lung
K-562 leukemia = system: K-562 leukemia
SR leukemia = system: SR leukemia
SNB-75 CNS = system: SNB-75 CNS
SK-MEL-5 melanoma = system: SK-MEL-5 melanoma
A498 renal = system: A498 renal
HOP-92 NSCLC = system: HOP-92 NSCLC
HCT-15 colon = system: HCT-15 colon
PC-3 prostate = system: PC-3 prostate
CCRF-CEM leukemia = system: CCRF-CEM leukemia
NCI-H522 lung = system: NCI-H522 lung
LOX IMVI melanoma = system: LOX IMVI melanoma
SNB-19 CNS = system: SNB-19 CNS
HS 578T breast = system: HS 578T breast
ACHN renal = system: ACHN renal
SK-MEL-2 melanoma = system: SK-MEL-2 melanoma
SW-620 colon = system: SW-620 colon
MDA-MB-231 breast = system: MDA-MB-231 breast
NCI-H226 lung = system: NCI-H226 lung
NCI-H460 lung = system: NCI-H460 lung
786-0 renal = system: 786-0 renal
HL-60(TB) leukemia = system: HL-60(TB) leukemia
MDA-MB-435 = system: MDA-MB-435
M14 melanoma = system: M14 melanoma
NCI/ADR-RES ovarian = system: NCI/ADR-RES ovarian
T-47D breast = system: T-47D breast
CAKI-1 renal = system: CAKI-1 renal
MCF7 breast = system: MCF7 breast
SF-539 CNS = system: SF-539 CNS
IGROV1 ovarian = system: IGROV1 ovarian
MOLT-4 leukemia = system: MOLT-4 leukemia
HOP-62 NSCLC = system: HOP-62 NSCLC
COLO 205 colon = system: COLO 205 colon
OVCAR-8 ovarian = system: OVCAR-8 ovarian
DU-145 prostate = system: DU-145 prostate
A549 NSCLC = system: A549 NSCLC
OVCAR-4 ovarian = system: OVCAR-4 ovarian
MALME-3M melanoma = system: MALME-3M melanoma
UO-31 renal = system: UO-31 renal
HT29 colon = system: HT29 colon
U251 CNS = system: U251 CNS
UACC-62 melanoma = system: UACC-62 melanoma
SN12C renal = system: SN12C renal
SK-MEL-28 melanoma = system: SK-MEL-28 melanoma
RXF 393 renal = system: RXF 393 renal
MDA-N = system: MDA-N
RPMI-8226 leukemia = system: RPMI-8226 leukemia
SF-268 CNS = system: SF-268 CNS
OVCAR-5 ovarian = system: OVCAR-5 ovarian
HCC-2998 colon = system: HCC-2998 colon
KM12 colon = system: KM12 colon
EKVX NSCLC = system: EKVX NSCLC
SK-OV-3 ovarian = system: SK-OV-3 ovarian
UACC-257 melanoma = system: UACC-257 melanoma
TK-10 renal = system: TK-10 renal
SF-295 CNS = system: SF-295 CNS
OVCAR-3 ovarian = system: OVCAR-3 ovarian

With C/C(O)=c1\cc(C#N)c(=C(C#N)C#N)nc1C the TGI (HCT-116 colon) was greater than 100 µM, the TGI (NCI-H23 lung) was greater than 100 µM and the TGI (K-562 leukemia) was greater than 100 µM. It also gave a TGI (SR leukemia) greater than 100 µM, a TGI (SNB-75 CNS) greater than 100 µM and a TGI (SK-MEL-5 melanoma) greater than 100 µM. The TGI (A498 renal) was greater than 100 µM, the TGI (HOP-92 NSCLC) was greater than 100 µM and the TGI (HCT-15 colon) was greater than 100 µM. For the same compound, the TGI (PC-3 prostate) was greater than 100 µM, the TGI (CCRF-CEM leukemia) was greater than 100 µM and the TGI (NCI-H522 lung) was greater than 100 µM. For the same compound, the TGI (LOX IMVI melanoma) was greater than 100 µM, the TGI (SNB-19 CNS) was greater than 100 µM and the TGI (HS 578T breast) was greater than 100 µM. The TGI (ACHN renal) was greater than 100 µM, the TGI (SK-MEL-2 melanoma) was greater than 100 µM and the TGI (SW-620 colon) was greater than 100 µM. For the same compound, the TGI (MDA-MB-231 breast) was greater than 100 µM, the TGI (NCI-H226 lung) was greater than 100 µM and the TGI (NCI-H460 lung) was greater than 100 µM. The TGI (786-0 renal) was greater than 100 µM, the TGI (HL-60(TB) leukemia) was greater than 100 µM and the TGI (MDA-MB-435) was greater than 100 µM. The TGI (M14 melanoma) was greater than 100 µM, the TGI (NCI/ADR-RES ovarian) was greater than 100 µM and the TGI (T-47D breast) was greater than 100 µM. For the same compound, the TGI (CAKI-1 renal) was greater than 100 µM, the TGI (MCF7 breast) was greater than 100 µM and the TGI (SF-539 CNS) was greater than 100 µM. For the same compound, the TGI (IGROV1 ovarian) was greater than 100 µM, the TGI (MOLT-4 leukemia) was greater than 100 µM and the TGI (HOP-62 NSCLC) was greater than 100 µM. For the same compound, the TGI (COLO 205 colon) was greater than 100 µM, the TGI (OVCAR-8 ovarian) was greater than 100 µM and the TGI (DU-145 prostate) was greater than 100 µM. For the same compound, the TGI (A549 NSCLC) was greater than 100 µM, the TGI (OVCAR-4 ovarian) was greater than 100 µM and the TGI (MALME-3M melanoma) was greater than 100 µM. For the same compound, the TGI (UO-31 renal) was greater than 100 µM, the TGI (HT29 colon) was greater than 100 µM and the TGI (U251 CNS) was greater than 100 µM. The TGI (UACC-62 melanoma) was greater than 100 µM, the TGI (SN12C renal) was greater than 100 µM and the TGI (SK-MEL-28 melanoma) was greater than 100 µM. It also gave a TGI (RXF 393 renal) greater than 100 µM, a TGI (MDA-N) greater than 100 µM and a TGI (RPMI-8226 leukemia) greater than 100 µM. For the same compound, the TGI (SF-268 CNS) was greater than 100 µM, the TGI (OVCAR-5 ovarian) was greater than 100 µM and the TGI (HCC-2998 colon) was greater than 100 µM. For the same compound, the TGI (KM12 colon) was greater than 100 µM and the TGI (EKVX NSCLC) was greater than 100 µM.
Work on COC(=O)c1cc(CC2Cc3cc4c(cc3C2)CCC4)cc2c1CCC2 yielded a TGI (HCT-116 colon) greater than 100 µM, a TGI (NCI-H23 lung) greater than 100 µM and a TGI (K-562 leukemia) greater than 100 µM. It also gave a TGI (SR leukemia) of 94 µM, a TGI (SNB-75 CNS) greater than 100 µM and a TGI (SK-MEL-5 melanoma) greater than 100 µM. It also gave a TGI (A498 renal) greater than 100 µM, a TGI (SK-OV-3 ovarian) greater than 100 µM and a TGI (HOP-92 NSCLC) greater than 100 µM. For the same compound, the TGI (HCT-15 colon) was greater than 100 µM, the TGI (PC-3 prostate) was greater than 100 µM and the TGI (CCRF-CEM leukemia) was greater than 100 µM. It also gave a TGI (NCI-H522 lung) greater than 100 µM, a TGI (LOX IMVI melanoma) greater than 100 µM and a TGI (SNB-19 CNS) greater than 100 µM. It also gave a TGI (HS 578T breast) greater than 100 µM, a TGI (ACHN renal) greater than 100 µM and a TGI (SK-MEL-2 melanoma) greater than 100 µM. The TGI (SW-620 colon) was greater than 100 µM, the TGI (MDA-MB-231 breast) was greater than 100 µM and the TGI (NCI-H226 lung) was greater than 100 µM. It also gave a TGI (NCI-H460 lung) greater than 100 µM, a TGI (786-0 renal) greater than 100 µM and a TGI (HL-60(TB) leukemia) greater than 100 µM. The TGI (MDA-MB-435) was greater than 100 µM, the TGI (UACC-257 melanoma) was greater than 100 µM and the TGI (M14 melanoma) was greater than 100 µM. For the same compound, the TGI (NCI/ADR-RES ovarian) was greater than 100 µM, the TGI (TK-10 renal) was greater than 100 µM and the TGI (T-47D breast) was greater than 100 µM. For the same compound, the TGI (CAKI-1 renal) was greater than 100 µM, the TGI (MCF7 breast) was greater than 100 µM and the TGI (SF-539 CNS) was greater than 100 µM. The TGI (IGROV1 ovarian) was greater than 100 µM, the TGI (SF-295 CNS) was greater than 100 µM and the TGI (MOLT-4 leukemia) was 55.7 µM. For the same compound, the TGI (HOP-62 NSCLC) was greater than 100 µM, the TGI (COLO 205 colon) was greater than 100 µM and the TGI (OVCAR-8 ovarian) was greater than 100 µM. It also gave a TGI (DU-145 prostate) greater than 100 µM, a TGI (A549 NSCLC) greater than 100 µM and a TGI (OVCAR-4 ovarian) greater than 100 µM. For the same compound, the TGI (MALME-3M melanoma) was greater than 100 µM, the TGI (UO-31 renal) was greater than 100 µM and the TGI (HT29 colon) was greater than 100 µM. The TGI (OVCAR-3 ovarian) was greater than 100 µM, the TGI (U251 CNS) was greater than 100 µM and the TGI (SN12C renal) was greater than 100 µM. It also gave a TGI (SK-MEL-28 melanoma) greater than 100 µM, a TGI (RXF 393 renal) greater than 100 µM and a TGI (MDA-N) greater than 100 µM. The TGI (RPMI-8226 leukemia) was greater than 100 µM, the TGI (SF-268 CNS) was greater than 100 µM and the TGI (OVCAR-5 ovarian) was greater than 100 µM. The TGI (HCC-2998 colon) was greater than 100 µM, the TGI (KM12 colon) was greater than 100 µM and the TGI (EKVX NSCLC) was greater than 100 µM.
Compound Cc1cc(C23OC4COC(C)(C)OC4C2OC(C)(C)O3)nc2ccccc12 (stereo unspecified) has a TGI (HCT-116 colon) greater than 100 µM, a TGI (NCI-H23 lung) greater than 100 µM and a TGI (K-562 leukemia) greater than 100 µM. For the same compound, the TGI (SR leukemia) was greater than 100 µM, the TGI (SNB-75 CNS) was greater than 100 µM and the TGI (SK-MEL-5 melanoma) was greater than 100 µM. The TGI (SK-OV-3 ovarian) was greater than 100 µM, the TGI (HOP-92 NSCLC) was greater than 100 µM and the TGI (HCT-15 colon) was greater than 100 µM. It also gave a TGI (PC-3 prostate) greater than 100 µM, a TGI (CCRF-CEM leukemia) greater than 100 µM and a TGI (NCI-H522 lung) greater than 100 µM. The TGI (LOX IMVI melanoma) was greater than 100 µM, the TGI (SNB-19 CNS) was greater than 100 µM and the TGI (HS 578T breast) was greater than 100 µM. The TGI (ACHN renal) was greater than 100 µM, the TGI (SK-MEL-2 melanoma) was greater than 100 µM and the TGI (SW-620 colon) was greater than 100 µM. For the same compound, the TGI (MDA-MB-231 breast) was greater than 100 µM, the TGI (NCI-H226 lung) was greater than 100 µM and the TGI (NCI-H460 lung) was greater than 100 µM. For the same compound, the TGI (786-0 renal) was greater than 100 µM, the TGI (HL-60(TB) leukemia) was greater than 100 µM and the TGI (MDA-MB-435) was greater than 100 µM. It also gave a TGI (UACC-257 melanoma) greater than 100 µM, a TGI (M14 melanoma) greater than 100 µM and a TGI (NCI/ADR-RES ovarian) greater than 100 µM. The TGI (TK-10 renal) was greater than 100 µM, the TGI (T-47D breast) was greater than 100 µM and the TGI (MCF7 breast) was greater than 100 µM. It also gave a TGI (SF-539 CNS) greater than 100 µM, a TGI (IGROV1 ovarian) greater than 100 µM and a TGI (SF-295 CNS) greater than 100 µM. For the same compound, the TGI (MOLT-4 leukemia) was greater than 100 µM, the TGI (HOP-62 NSCLC) was greater than 100 µM and the TGI (COLO 205 colon) was greater than 100 µM. It also gave a TGI (OVCAR-8 ovarian) greater than 100 µM, a TGI (DU-145 prostate) greater than 100 µM and a TGI (A549 NSCLC) greater than 100 µM. The TGI (OVCAR-4 ovarian) was greater than 100 µM, the TGI (MALME-3M melanoma) was greater than 100 µM and the TGI (UO-31 renal) was greater than 100 µM. The TGI (HT29 colon) was greater than 100 µM, the TGI (OVCAR-3 ovarian) was greater than 100 µM and the TGI (U251 CNS) was greater than 100 µM. The TGI (UACC-62 melanoma) was greater than 100 µM, the TGI (SN12C renal) was greater than 100 µM and the TGI (SK-MEL-28 melanoma) was greater than 100 µM. The TGI (RXF 393 renal) was greater than 100 µM, the TGI (MDA-N) was greater than 100 µM and the TGI (RPMI-8226 leukemia) was greater than 100 µM. The TGI (SF-268 CNS) was greater than 100 µM, the TGI (OVCAR-5 ovarian) was greater than 100 µM and the TGI (HCC-2998 colon) was greater than 100 µM. It also gave a TGI (KM12 colon) greater than 100 µM and a TGI (EKVX NSCLC) greater than 100 µM.
